PubChem BioAssay (NCI)
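Exposure lasted 48 hours, with cells grown in 96-well plates and compounds tested at five concentrations. Here, GI50 denotes the concentration required for 50% inhibition of growth. TGI: total growth inhibition.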

Tests used:
Assay in all cases: growth of human tumour cells (NCI), 48 h
786-0 renal = test system: 786-0 renal
A498 renal = test system: A498 renal
A549 NSCLC = test system: A549 NSCLC
ACHN renal = test system: ACHN renal
BT-549 breast = test system: BT-549 breast
CAKI-1 renal = test system: CAKI-1 renal
CCRF-CEM leukemia = test system: CCRF-CEM leukemia
COLO 205 colon = test system: COLO 205 colon
DU-145 prostate = test system: DU-145 prostate
EKVX NSCLC = test system: EKVX NSCLC
HCC-2998 colon = test system: HCC-2998 colon
HCT-116 colon = test system: HCT-116 colon
HCT-15 colon = test system: HCT-15 colon
HL-60(TB) leukemia = test system: HL-60(TB) leukemia
HOP-62 NSCLC = test system: HOP-62 NSCLC
HOP-92 NSCLC = test system: HOP-92 NSCLC
HS 578T breast = test system: HS 578T breast
HT29 colon = test system: HT29 colon
IGROV1 ovarian = test system: IGROV1 ovarian
K-562 leukemia = test system: K-562 leukemia
KM12 colon = test system: KM12 colon
LOX IMVI melanoma = test system: LOX IMVI melanoma
M14 melanoma = test system: M14 melanoma
MCF7 breast = test system: MCF7 breast
MDA-MB-231 breast = test system: MDA-MB-231 breast
MDA-MB-435 = test system: MDA-MB-435
MDA-N = test system: MDA-N
MOLT-4 leukemia = test system: MOLT-4 leukemia
NCI-H460 lung = test system: NCI-H460 lung
NCI/ADR-RES ovarian = test system: NCI/ADR-RES ovarian
OVCAR-3 ovarian = test system: OVCAR-3 ovarian
OVCAR-4 ovarian = test system: OVCAR-4 ovarian
OVCAR-5 ovarian = test system: OVCAR-5 ovarian
OVCAR-8 ovarian = test system: OVCAR-8 ovarian
PC-3 prostate = test system: PC-3 prostate
RPMI-8226 leukemia = test system: RPMI-8226 leukemia
SF-268 CNS = test system: SF-268 CNS
SF-295 CNS = test system: SF-295 CNS
SF-539 CNS = test system: SF-539 CNS
SK-MEL-2 melanoma = test system: SK-MEL-2 melanoma
SK-MEL-28 melanoma = test system: SK-MEL-28 melanoma
SK-MEL-5 melanoma = test system: SK-MEL-5 melanoma
SK-OV-3 ovarian = test system: SK-OV-3 ovarian
SN12C renal = test system: SN12C renal
SNB-19 CNS = test system: SNB-19 CNS
SNB-75 CNS = test system: SNB-75 CNS
SR leukemia = test system: SR leukemia
SW-620 colon = test system: SW-620 colon
T-47D breast = test system: T-47D breast
TK-10 renal = test system: TK-10 renal
U251 CNS = test system: U251 CNS
UACC-257 melanoma = test system: UACC-257 melanoma
UACC-62 melanoma = test system: UACC-62 melanoma
UO-31 renal = test system: UO-31 renal
MALME-3M melanoma = test system: MALME-3M melanoma
NCI-H226 lung = test system: NCI-H226 lung
NCI-H23 lung = test system: NCI-H23 lung
RXF 393 renal = test system: RXF 393 renal
NCI-H522 lung = test system: NCI-H522 lung

## CN(C)c1ccc(C=C2N=C(c3ccccc3)N(c3cc(C(=O)c4ccccc4)ccc3N3C(=O)/C(=C/c4ccc(N(C)C)cc4)N=C3c3ccccc3)C2=O)cc1
786-0 renal
  TGI: > 100 µM
A498 renal
  TGI: > 100 µM
A549 NSCLC
  TGI: > 100 µM
ACHN renal
  TGI: > 100 µM
BT-549 breast
  TGI: > 100 µM
CAKI-1 renal
  TGI: > 100 µM
CCRF-CEM leukemia
  TGI: > 100 µM
COLO 205 colon
  TGI: 19.4 µM
DU-145 prostate
  TGI: > 100 µM
EKVX NSCLC
  TGI: > 100 µM
HCC-2998 colon
  TGI: 22.7 µM
HCT-116 colon
  TGI: 95.4 µM
HCT-15 colon
  TGI: > 100 µM
HL-60(TB) leukemia
  TGI: 37.6 µM
HOP-62 NSCLC
  TGI: > 100 µM
HOP-92 NSCLC
  TGI: > 100 µM
HS 578T breast
  TGI: > 100 µM
HT29 colon
  TGI: 24.7 µM
IGROV1 ovarian
  TGI: > 100 µM
K-562 leukemia
  TGI: > 100 µM
KM12 colon
  TGI: > 100 µM
LOX IMVI melanoma
  TGI: > 100 µM
M14 melanoma
  TGI: > 100 µM
MCF7 breast
  TGI: > 100 µM
MDA-MB-231 breast
  TGI: > 100 µM
MDA-MB-435
  TGI: 4.42 µM
MDA-N
  TGI: 6.03 µM
MOLT-4 leukemia
  TGI: 14.9 µM
NCI-H460 lung
  TGI: > 100 µM
NCI/ADR-RES ovarian
  TGI: 85.1 µM
OVCAR-3 ovarian
  TGI: 5.57 µM
OVCAR-4 ovarian
  TGI: > 100 µM
OVCAR-5 ovarian
  TGI: > 100 µM
OVCAR-8 ovarian
  TGI: 73.6 µM
PC-3 prostate
  TGI: 28.2 µM
RPMI-8226 leukemia
  TGI: 8.86 µM
SF-268 CNS
  TGI: > 100 µM
SF-295 CNS
  TGI: 27.1 µM
SF-539 CNS
  TGI: 6.05 µM
SK-MEL-2 melanoma
  TGI: 21.4 µM
SK-MEL-28 melanoma
  TGI: > 100 µM
SK-MEL-5 melanoma
  TGI: > 100 µM
SK-OV-3 ovarian
  TGI: > 100 µM
SN12C renal
  TGI: > 100 µM
SNB-19 CNS
  TGI: > 100 µM
SNB-75 CNS
  TGI: 78.9 µM
SR leukemia
  TGI: > 100 µM
SW-620 colon
  TGI: > 100 µM
T-47D breast
  TGI: > 100 µM
TK-10 renal
  TGI: > 100 µM
U251 CNS
  TGI: 29.5 µM
UACC-257 melanoma
  TGI: > 100 µM
UACC-62 melanoma
  TGI: > 100 µM
UO-31 renal
  TGI: > 100 µM

## O=C1c2cccnc2-c2nc(-c3ccncc3)cc3c2c1nc1ccccc13
786-0 renal
  GI50: 15 µM
  TGI: 39.9 µM
A498 renal
  GI50: 38.5 µM
  TGI: > 100 µM
ACHN renal
  GI50: 12.1 µM
  TGI: 24.4 µM
BT-549 breast
  GI50: 24.6 µM
  TGI: 62.1 µM
CAKI-1 renal
  GI50: 16.4 µM
  TGI: 34.8 µM
CCRF-CEM leukemia
  GI50: 8.03 µM
  TGI: 39.6 µM
COLO 205 colon
  GI50: 30 µM
  TGI: 72.6 µM
DU-145 prostate
  GI50: 20.6 µM
  TGI: 42.7 µM
EKVX NSCLC
  GI50: 24.3 µM
  TGI: > 100 µM
HCT-116 colon
  GI50: 17.1 µM
  TGI: 51 µM
HCT-15 colon
  GI50: 10.2 µM
  TGI: 21.8 µM
HL-60(TB) leukemia
  GI50: 12.3 µM
  TGI: 89.6 µM
HOP-62 NSCLC
  GI50: 14.3 µM
  TGI: 27.4 µM
HS 578T breast
  GI50: 10.6 µM
  TGI: 23.1 µM
HT29 colon
  GI50: 17.9 µM
  TGI: 31.7 µM
IGROV1 ovarian
  GI50: 4.67 µM
  TGI: 28.8 µM
K-562 leukemia
  GI50: 15.4 µM
  TGI: > 100 µM
LOX IMVI melanoma
  GI50: 16.1 µM
  TGI: 43.6 µM
M14 melanoma
  GI50: 17.8 µM
  TGI: 31.6 µM
MALME-3M melanoma
  GI50: 14.9 µM
  TGI: 29.3 µM
MCF7 breast
  GI50: 11.4 µM
  TGI: 23.5 µM
MDA-MB-231 breast
  GI50: 14.3 µM
  TGI: 50.1 µM
MDA-MB-435
  GI50: 15.5 µM
  TGI: 30.1 µM
MDA-N
  GI50: 19.9 µM
  TGI: 35.9 µM
MOLT-4 leukemia
  GI50: 5.14 µM
  TGI: > 100 µM
NCI-H226 lung
  GI50: 10.9 µM
  TGI: 22.8 µM
NCI-H23 lung
  GI50: 12.5 µM
  TGI: 28 µM
NCI-H460 lung
  GI50: 6.29 µM
  TGI: 19.5 µM
NCI/ADR-RES ovarian
  GI50: 9.63 µM
  TGI: 24.8 µM
OVCAR-3 ovarian
  GI50: 7.51 µM
  TGI: 20 µM
OVCAR-5 ovarian
  GI50: 31.2 µM
  TGI: > 100 µM
OVCAR-8 ovarian
  GI50: 10.5 µM
  TGI: 24 µM
PC-3 prostate
  GI50: 16.1 µM
  TGI: 61.9 µM
RPMI-8226 leukemia
  GI50: 14.6 µM
  TGI: 64.8 µM
RXF 393 renal
  GI50: 15.6 µM
  TGI: 66.7 µM
SF-268 CNS
  GI50: 15.1 µM
  TGI: 34.5 µM
SF-295 CNS
  GI50: 15.1 µM
  TGI: 28.4 µM
SF-539 CNS
  GI50: 2.95 µM
  TGI: 13.6 µM
SK-MEL-2 melanoma
  GI50: > 100 µM
  TGI: > 100 µM
SK-MEL-28 melanoma
  GI50: > 100 µM
  TGI: > 100 µM
SK-MEL-5 melanoma
  GI50: 14.1 µM
  TGI: 36.5 µM
SK-OV-3 ovarian
  GI50: > 100 µM
  TGI: > 100 µM
SN12C renal
  GI50: 20 µM
  TGI: 47.5 µM
SNB-19 CNS
  GI50: 19.3 µM
  TGI: 47.4 µM
SNB-75 CNS
  GI50: 13.1 µM
  TGI: 25.8 µM
SR leukemia
  GI50: 2.94 µM
  TGI: > 100 µM
SW-620 colon
  GI50: 12.7 µM
  TGI: 41.6 µM
T-47D breast
  GI50: 44.9 µM
  TGI: > 100 µM
TK-10 renal
  GI50: 19.5 µM
  TGI: 40.2 µM
U251 CNS
  GI50: 12 µM
  TGI: 64.5 µM
UACC-257 melanoma
  GI50: > 100 µM
  TGI: > 100 µM
UO-31 renal
  GI50: 33.2 µM
  TGI: > 100 µM

## O=C1C(SCCO)=C(SCCO)C(=O)c2ccccc21
786-0 renal
  TGI: 3.91 µM
A498 renal
  TGI: 1.35 µM
A549 NSCLC
  TGI: 3.7 µM
ACHN renal
  TGI: 2.26 µM
BT-549 breast
  TGI: 2.89 µM
CAKI-1 renal
  TGI: 4.24 µM
CCRF-CEM leukemia
  TGI: 4.8 µM
COLO 205 colon
  TGI: 3.27 µM
EKVX NSCLC
  TGI: 3.08 µM
HCC-2998 colon
  TGI: 3.42 µM
HCT-116 colon
  TGI: 9.54 µM
HCT-15 colon
  TGI: 3.58 µM
HL-60(TB) leukemia
  TGI: 7.91 µM
HOP-62 NSCLC
  TGI: 3.77 µM
HOP-92 NSCLC
  TGI: 2.42 µM
HS 578T breast
  TGI: 4.99 µM
HT29 colon
  TGI: 3.98 µM
IGROV1 ovarian
  TGI: 2.78 µM
K-562 leukemia
  TGI: 3.87 µM
KM12 colon
  TGI: 3.76 µM
LOX IMVI melanoma
  TGI: 0.812 µM
M14 melanoma
  TGI: 2.5 µM
MALME-3M melanoma
  TGI: 2.85 µM
MCF7 breast
  TGI: 2.36 µM
MDA-MB-231 breast
  TGI: 4.15 µM
MDA-MB-435
  TGI: 0.348 µM
MDA-N
  TGI: 0.314 µM
MOLT-4 leukemia
  TGI: 0.481 µM
NCI-H226 lung
  TGI: 3.38 µM
NCI-H23 lung
  TGI: 2.44 µM
NCI-H460 lung
  TGI: 3.49 µM
NCI-H522 lung
  TGI: 3.56 µM
NCI/ADR-RES ovarian
  TGI: 2.53 µM
OVCAR-3 ovarian
  TGI: 3.22 µM
OVCAR-4 ovarian
  TGI: 0.671 µM
OVCAR-5 ovarian
  TGI: 2.81 µM
OVCAR-8 ovarian
  TGI: 1.22 µM
PC-3 prostate
  TGI: 6.1 µM
RPMI-8226 leukemia
  TGI: 3.09 µM
RXF 393 renal
  TGI: 2.8 µM
SF-268 CNS
  TGI: 3.21 µM
SF-295 CNS
  TGI: 2.97 µM
SF-539 CNS
  TGI: 2.02 µM
SK-MEL-2 melanoma
  TGI: 4.24 µM
SK-MEL-28 melanoma
  TGI: 3.18 µM
SK-MEL-5 melanoma
  TGI: 0.653 µM
SK-OV-3 ovarian
  TGI: 3.08 µM
SN12C renal
  TGI: 3.06 µM
SNB-19 CNS
  TGI: 3.23 µM
SNB-75 CNS
  TGI: 2.57 µM
SR leukemia
  TGI: 3.74 µM
SW-620 colon
  TGI: 1.47 µM
T-47D breast
  TGI: > 27.5 µM
TK-10 renal
  TGI: 3.39 µM
U251 CNS
  TGI: 2.01 µM
UACC-257 melanoma
  TGI: 2.59 µM
UACC-62 melanoma
  TGI: 2.84 µM
UO-31 renal
  TGI: 2.57 µM
